Data reported in patent US10933056B2, “3-(1H-pyrazol-4-yl)pyridine allosteric modulators of the M4 muscarinic acetylcholine receptor” (Merck Sharp & Dohme Corp., priority 2015, dated 2021).

Biological target: T1, human M4 muscarinic acetylcholine receptor (Homo sapiens, UniProt P08173)
T1 construct: expressed in transfected cells; host or cells: CHO-K1
T1 sequence (P08173 1-479): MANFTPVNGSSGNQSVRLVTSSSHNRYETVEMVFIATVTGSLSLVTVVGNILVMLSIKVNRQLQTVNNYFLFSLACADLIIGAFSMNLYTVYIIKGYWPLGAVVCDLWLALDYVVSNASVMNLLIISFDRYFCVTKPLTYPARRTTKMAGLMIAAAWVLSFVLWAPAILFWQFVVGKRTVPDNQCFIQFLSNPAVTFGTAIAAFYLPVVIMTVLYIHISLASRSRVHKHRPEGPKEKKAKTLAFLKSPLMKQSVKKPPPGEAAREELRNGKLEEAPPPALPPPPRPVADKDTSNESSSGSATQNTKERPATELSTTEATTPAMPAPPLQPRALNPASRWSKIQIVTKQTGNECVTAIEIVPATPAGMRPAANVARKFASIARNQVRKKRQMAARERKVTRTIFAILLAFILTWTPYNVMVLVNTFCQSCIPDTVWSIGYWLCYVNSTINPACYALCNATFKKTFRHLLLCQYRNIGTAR
Assay: human FLIPR-based M4 PAM assay (calcium mobilization in CHO-K1 cells with human M4 receptor and Gαqi5)
Type: cell-based
Details: inflection point of dose response curve, acetylcholine at 20% of maximum response, FLIPR Tetra, read-out: M4 PAM IP
Method in brief: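 CHO-K1 cells stably expressing human M4 and chimeric Gαqi5 were dye-loaded ~1 h at 37° C. Test compound was added with fluorescence recorded 4 min, then acetylcholine at EC20 (sometimes a further EC70 addition) with reading 3.5 min. Value is the inflection point of a 4-parameter logistic fit.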

EC50 [nM] | Compound
18 | CC1(Cn2cc(-c3ccc(C#N)nc3-c3cnc4c(c3)C(=O)NC4)cn2)CCCC1 [Example 101, 5-(1-((1-methylcyclopentyl)methyl)-1H-pyrazol-4-yl)-6-(5-oxo-6,7-dihydro-5H-pyrrolo[3,4-b]pyridin-3-yl)picolinonitrile]
35 | CC1(Cn2cc(-c3ccc(C#N)nc3-c3cnc4c(c3)C(=O)N(CC3CC3)C4)cn2)CCCC1 [Example 102, 6-(6-(cyclopropylmethyl)-5-oxo-6,7-dihydro-5H-pyrrolo[3,4-b]pyridin-3-yl)-5-(1-((1-methylcyclopentyl)methyl)-1H-pyrazol-4-yl)picolinonitrile]
33 | CC1(Cn2cc(-c3ccc(C#N)nc3-c3cnc4c(c3)C(=O)N(CCF)C4)cn2)CCCC1 [Example 103, 6-(6-(2-fluoroethyl)-5-oxo-6,7-dihydro-5H-pyrrolo[3,4-b]pyridin-3-yl)-5-(1-((1-methylcyclopentyl)methyl)-1H-pyrazol-4-yl)picolinonitrile]
14 | Cc1ccc(-c2cnn(CC3(C)CCCC3)c2)c(-c2ccc3c(c2)C(=O)NC3)n1 [Example 104, 6-(6-methyl-3-(1-((1-methylcyclopentyl)methyl)-1H-pyrazol-4-yl)pyridin-2-yl)isoindolin-1-one]
36 | CC1(Cn2cc(-c3ccc(C#N)nc3-c3cnc4c(c3)C(=O)N(C3CC3)C4)cn2)CCCC1 [Example 105, 6-(6-cyclopropyl-5-oxo-6,7-dihydro-5H-pyrrolo[3,4-b]pyridin-3-yl)-5-(1-((1-methylcyclopentyl)methyl)-1H-pyrazol-4-yl)picolinonitrile]
43 | CC1(Cn2cc(-c3ccc(Cl)nc3-c3cnc4c(c3)C(=O)N(CC3CC3)C4)cn2)CCCC1 [Example 106, 3-(6-chloro-3-(1-((1-methylcyclopentyl)methyl)-1H-pyrazol-4-yl)pyridin-2-yl)-6-(cyclopropylmethyl)-6,7-dihydro-5H-pyrrolo[3,4-b]pyridin-5-one]
15 | CN1Cc2ccc(-c3nc(Cl)ccc3-c3cnn(CC4CCCC4)c3)cc2C1=O [Example 107, 6-(6-Chloro-3-(1-(cyclopentylmethyl)-1H-pyrazol-4-yl)pyridin-2-yl)-2-methylisoindolin-1-one]
17 | O=C1c2cc(-c3nc(Cl)ccc3-c3cnn(CC4CCCC4)c3)ccc2CN1C1CC1 [Example 108, 6-(6-chloro-3-(1-(cyclopentylmethyl)-1H-pyrazol-4-yl)pyridin-2-yl)-2-cyclopropylisoindolin-1-one]
48 | Cc1cc(-c2cnn(CC3(C)CCCC3)c2)c(-c2ccc3c(c2)C(=O)N(C)C3)nc1C [Example 109, 6-(5,6-Dimethyl-3-(1-((1-methylcyclopentyl)methyl)-1H-pyrazol-4-yl)pyridin-2-yl)-2-methylisoindolin-1-one]
86 | CN1Cc2ccc(-c3nc(C#N)ccc3-c3cn(CC4(C)CCCC4)nc3C#N)cc2C1=O [Example 110, 5-(3-Cyano-1-((1-methylcyclopentyl)methyl)-1H-pyrazol-4-yl)-6-(2-methyl-3-oxoisoindolin-5-yl)picolinonitrile]
35 | Cc1cc(-c2cnn(CC3(C)CCCC3)c2)c(-c2ccc3c(c2)C(=O)N(C)C3)nc1C#N [Example 111, 3-Methyl-6-(2-methyl-3-oxoisoindolin-5-yl)-5-(1-((1-methylcyclopentyl)methyl)-1H-pyrazol-4-yl)picolinonitrile]
27 | Cc1cc(-c2cnn(CC3(C)CCCC3)c2)c(-c2cnc3c(c2)C(=O)N(C)C3)nc1C#N [Example 112, 3-methyl-6-(6-methyl-5-oxo-6,7-dihydro-5H-pyrrolo[3,4-b]pyridin-3-yl)-5-(1-((1-methylcyclopentyl)-methyl)-1H-pyrazol-4-yl)picolinonitrile]
36 | Cc1cc(-c2cnn(CC3(C)CCCC3)c2)c(-c2ccc3c(c2)C(=O)NC3)nc1C#N [Example 112A, 3-methyl-5-(1-((1-methylcyclopentyl)methyl)-1H-pyrazol-4-yl)-6-(3-oxoisoindolin-5-yl)picolinonitrile]
69 | Cc1cc(-c2cnn(CC3(C)CCCC3)c2)c(-c2ccc3c(c2)C(=O)N(C)C3)nc1C(N)=O [Example 113, 3-Methyl-6-(2-methyl-3-oxoisoindolin-5-yl)-5-(1-((1-methylcyclopentyl)methyl)-1H-pyrazol-4-yl)picolinamide]
205 | CC1(Cn2cc(-c3ccc(C(N)=O)nc3-c3ccc4c(c3)C(=O)NC4)cn2)CCCC1 [Example 113A, 5-(1-((1-methylcyclopentyl)methyl)-1H-pyrazol-4-yl)-6-(3-oxoisoindolin-5-yl)picolinamide]
57 | Cc1cc(-c2cnn(CC3(C)CCCC3)c2)c(-c2ccc3c(c2)C(=O)N(C)C3)nc1CF [Example 114, 6-(6-(Fluoromethyl)-5-methyl-3-(1-((1-methylcyclopentyl)methyl)-1H-pyrazol-4-yl)pyridin-2-yl)-2-methylisoindolin-1-one]
47 | CN1Cc2ccc(-c3nc(CF)c(F)cc3-c3cnn(CC4(C)CCCC4)c3)cc2C1=O [Example 115, 6-(5-fluoro-6-(fluoromethyl)-3-(1-((1-methylcyclo-pentyl)-methyl)-1H-pyrazol-4-yl)pyridin-2-yl)-2-methylisoindolin-1-one]
326 | COCc1nc(-c2ccc3c(c2)C(=O)N(C)C3)c(-c2cnn(CC3(C)CCCC3)c2)cc1C [Example 116, 6-(6-(Methoxymethyl)-5-methyl-3-(1-((1-methylcyclopentyl)methyl)-1H-pyrazol-4-yl)pyridin-2-yl)-2-methylisoindolin-1-one]

Second part, the compound before the results:

Compound | EC50 [nM]
O=C1c2cc(-c3ncccc3-c3cnn(CC4CCCC4)c3)ccc2CN1C1COC1 [Example 88, 6-(3-(1-(cyclopentylmethyl)-1H-pyrazol-4-yl)pyridin-2-yl)-2-(oxetan-3-yl)isoindolin-1-one] | 240
O=C1c2cc(-c3ncccc3-c3cnn(CC4CCCC4)c3)ccc2CN1C1CCC1 [Example 89, 2-cyclobutyl-6-(3-(1-(cyclopentylmethyl)-1H-pyrazol-4-yl)pyridin-2-yl)isoindolin-1-one] | 32
CNC(=O)C1(N2Cc3ccc(-c4ncccc4-c4cnn(CC5CCCC5)c4)cc3C2=O)CC1 [Example 90, 1-(6-(3-(1-(cyclopentylmethyl)-1H-pyrazol-4-yl)pyridin-2-yl)-1-oxoisoindolin-2-yl)-N-methylcyclopropane-1-carboxamide] | 359
NS(=O)(=O)c1ccc(CCN2Cc3ccc(-c4ncccc4-c4cnn(CC5CCCC5)c4)cc3C2=O)cc1 [Example 91, 4-(2-(6-(3-(1-(cyclopentylmethyl)-1H-pyrazol-4-yl)pyridin-2-yl)-1-oxoisoindolin-2-yl)ethyl)benzenesulfonamide] | 49
O=C1c2cc(-c3ncccc3-c3cnn(CC4CCCC4)c3)ccc2CN1CCc1ccccc1 [Example 92, 6-(3-(1-(cyclopentylmethyl)-1H-pyrazol-4-yl)pyridin-2-yl)-2-phenethylisoindolin-1-one] | 45
O=C1c2cc(-c3ncccc3-c3cnn(CC4CCCC4)c3)ccc2CN1C1CC1 [Example 93, 6-(3-(1-(cyclopentyl-methyl)-1H-pyrazol-4-yl)pyridin-2-yl)-2-cyclopropylisoindolin-1-one] | 58
O=C1c2cc(-c3ncccc3-c3cnn(CC4CCCC4)c3)ccc2CN1CCc1ccc(O)cc1 [Example 94, 6-(3-(1-(cyclopentylmethyl)-1H-pyrazol-4-yl)pyridin-2-yl)-2-(4-hydroxyphenethyl)isoindolin-1-one] | 29
CN1Cc2ncc(-c3nc(C#N)ccc3-c3cnn(CC4(C)CCCC4)c3)cc2C1=O [Example 95, 6-(6-Methyl-5-oxo-6,7-dihydro-5H-pyrrolo[3,4-b]pyridin-3-yl)-5-(1-((1-methylcyclopentyl)methyl)-1H-pyrazol-4-yl)picolinonitrile] | 21
CN1Cc2ccc(-c3ncccc3-c3cnn(CC4CCCC4)c3)cc2C1=O [Example 96, 6-(3-(1-(cyclopentylmethyl)-1H-pyrazol-4-yl)pyridin-2-yl)-2-methylisoindolin-1-one] | 56
Cc1ccc(-c2cnn(CC3CCCC3)c2)c(-c2ccc3c(c2)C(=O)N(C)C3)n1 [Example 97, 6-(3-(1-(cyclopentylmethyl)-1H-pyrazol-4-yl)-6-methylpyridin-2-yl)-2-methylisoindolin-1-one] | 16
Cc1ccc(-c2cnn(CC3(C)CCCC3)c2)c(-c2ccc3c(c2)C(=O)N(C)C3=O)n1 [Example 98, 2-methyl-5-(6-methyl-3-(1-((1-methylcyclopentyl)methyl)-1H-pyrazol-4-yl)pyridin-2-yl)isoindoline-1,3-dione] | 29
Cc1ccc(-c2cnn(CC3(C)CCCC3)c2)c(-c2ccc3c(c2)C(=O)NC3=O)n1 [Example 99, 5-(6-methyl-3-(1-((1-methylcyclopentyl)methyl)-1H-pyrazol-4-yl)pyridin-2-yl)isoindoline-1,3-dione] | 19
Cc1cc(-c2cnn(CC3(C)CCCC3)c2)c(-c2cnc3c(c2)C(=O)N(C)C3)nc1Cl [Example 100, 3-(6-chloro-5-methyl-3-(1-((1-methylcyclopentyl)methyl)-1H-pyrazol-4-yl)pyridin-2-yl)-6-methyl-6,7-dihydro-5H-pyrrolo[3,4-b]pyridin-5-one] | 26
